Test results: ChEMBL document CHEMBL1135060, “Design and synthesis of peptide-based carboxylic acid-containing transition-state inhibitors of human neutrophil elastase” (Bioorg Med Chem Lett, 2002)

Assays:
[1] = test system: Cricetinae gen. sp.; assay: The compound was evaluated for its ability to inhibit the human neutrophil elastase-induced lung hemorrhage in hamster by intravenous bolus administration of 100 mg/Kg dose; type: functional, Cricetulus griseus
[2] = test system: Cricetinae gen. sp.; assay: The compound was evaluated for its ability to inhibit the human neutrophil elastase-induced lung hemorrhage in hamster by intravenous bolus administration of 30 mg/Kg dose; type: functional, Cricetulus griseus
[3] = target: T1, Neutrophil elastase (Homo sapiens, UniProt P08246); assay: In vitro inhibition of the human neutrophil elastase-catalyzed hydrolysis of the synthetic substrate Suc-Ala-Pro-Ala-MCA
T1 sequence (P08246 whole entry): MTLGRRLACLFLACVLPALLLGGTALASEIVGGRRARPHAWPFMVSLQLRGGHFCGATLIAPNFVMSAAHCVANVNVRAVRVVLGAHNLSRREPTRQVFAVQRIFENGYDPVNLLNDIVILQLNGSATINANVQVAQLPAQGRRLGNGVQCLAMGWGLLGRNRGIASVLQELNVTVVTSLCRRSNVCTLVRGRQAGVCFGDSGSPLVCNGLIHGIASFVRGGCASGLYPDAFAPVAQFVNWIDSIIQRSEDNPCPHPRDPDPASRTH

[4] = test system: Cricetinae gen. sp.; assay: The compound was evaluated for its ability to inhibit the HNE-induced lung hemorrhage in hamster by intravenous bolus administration of 10 mg/Kg dose; type: functional, Cricetulus griseus
[5] = test system: Cricetinae gen. sp.; assay: The compound was evaluated for its ability to inhibit the human neutrophil elastase-induced lung hemorrhage in hamster by intravenous bolus administration of 10 mg/Kg dose; type: functional, Cricetulus griseus
[6] = test system: Cricetinae gen. sp.; assay: The compound was evaluated for its ability to inhibit the human neutrophil elastase-induced lung hemorrhage in hamster by intravenous bolus administration of 30 mg/kg dose; type: functional, Cricetulus griseus
[7] = test system: Cricetinae gen. sp.; assay: The compound was evaluated for its ability to inhibit the human neutrophil elastase-induced lung hemorrhage in hamster by intravenous bolus administration of 10 mg/kg dose; type: functional, Cricetulus griseus

SMILES	IC50 [3]	inhibition in vivo at 30 mg/kg [2]	other results
CC(C)[C@H](NC(=O)[C@@H]1CCCN1C(=O)[C@H](NC(=O)COc1ccc(OCC(=O)O)cc1)C(C)C)C(=O)c1nc2ccccc2o1		56%	inhibition in vivo at 100 mg/kg [1]: 98%
CC(C)[C@H](NC(=O)COc1ccc(OCC(=O)O)cc1)C(=O)c1nc2c(OC(=O)C(C)(C)C)cccc2o1	130 nM	13%	inhibition in vivo at 100 mg/kg [1]: 74%
CC(C)[C@H](NC(=O)[C@@H]1CCCN1C(=O)[C@@H](NC(=O)COC(=O)c1ccc(OCC(=O)O)cc1)C(C)C)C(=O)c1nc2ccccc2o1	13 nM	75%	inhibition in vivo at 10 mg/kg [4]: 12%
CC(C)[C@H](NC(=O)[C@@H]1CCCN1C(=O)[C@@H](NC(=O)/C=C/C(=O)O)C(C)C)C(=O)c1nc2ccccc2o1	72 nM		
CC(C)CCOc1cccc2oc(C(=O)[C@@H](NC(=O)[C@H]3CCCN3C(=O)COc3ccc(OCC(=O)O)cc3)C(C)C)nc12	290 nM	-16%	inhibition in vivo at 100 mg/kg [1]: 99%
CC(C)[C@H](NC(=O)[C@@H]1CCCN1C(=O)[C@@H](NC(=O)COc1ccc(SCC(C)(C)C(=O)O)cc1)C(C)C)C(=O)c1nc2ccccc2o1	3.5 nM		inhibition in vivo at 100 mg/kg [1]: 99%; inhibition in vivo at 10 mg/kg [5]: 30%; inhibition in vivo at 30 mg/kg [6]: 86%
CC(C)[C@H](NC(=O)[C@@H]1CCCN1C(=O)[C@@H](NC(=O)CNC(=O)c1ccc(OCC(=O)O)cc1)C(C)C)C(=O)c1nc2ccccc2o1	33 nM		inhibition in vivo at 10 mg/kg [7]: 46%; inhibition in vivo at 30 mg/kg [6]: 99%
CC(C)[C@H](NC(=O)[C@@H]1CCCN1C(=O)[C@@H](NC(=O)COc1ccccc1OCC(=O)O)C(C)C)C(=O)c1nc2ccccc2o1	7.2 nM	48%	inhibition in vivo at 100 mg/kg [1]: 90%; inhibition in vivo at 10 mg/kg [5]: 37%
CC(C)[C@H](NC(=O)OCc1ccccc1)C(=O)c1nc2c(OCc3cccc(C(F)(F)F)c3)cccc2o1	> 10000 nM		
CC(C)[C@H](NC(=O)[C@@H]1CCCN1C(=O)[C@@H](NC(=O)c1ccc(OCC(=O)O)cc1)C(C)C)C(=O)c1nc2ccccc2o1	7.4 nM	60%	inhibition in vivo at 10 mg/kg [5]: 15%
CC(C)[C@H](NC(=O)[C@@H]1CCCN1C(=O)[C@@H](NC(=O)CCC(=O)O)C(C)C)C(=O)c1nc2ccccc2o1	66 nM	61%	
CC(C)[C@H](NC(=O)[C@@H]1CCCN1C(=O)[C@@H](NC(=O)COc1ccc(OCC(=O)O)cc1)C(C)C)C(=O)c1nc2c(OC(=O)C(C)(C)C)cccc2o1	8.9 nM	73%	inhibition in vivo at 100 mg/kg [1]: 99%

More lines, main results first:

IC50 [3]	SMILES	inhibition in vivo at 30 mg/kg [2]	other results
> 10000 nM	CCCCC(Oc1cccc2oc(C(=O)[C@@H](NC(=O)OCc3ccccc3)C(C)C)nc12)c1ccccc1 (stereo not given in full)		
> 10000 nM	CC(C)[C@H](NC(=O)OCc1ccccc1)C(=O)c1nc2ccccc2o1		
> 10000 nM	CCCCCOc1cccc2oc(C(=O)[C@@H](NC(=O)OCc3ccccc3)C(C)C)nc12		
> 10000 nM	CC(C)[C@H](NC(=O)OCc1ccccc1)C(=O)c1nc2c(OCc3ccccc3)cccc2o1		
> 10000 nM	CC(C)[C@H](NC(=O)OCc1ccccc1)C(=O)c1nc2c(OCC(N)=O)cccc2o1		
> 10000 nM	CC(C)[C@H](NC(=O)OCc1ccccc1)C(=O)c1nc2c(O)cccc2o1		
7800 nM	CC(C)CCOc1cccc2oc(C(=O)[C@@H](NC(=O)OCc3ccccc3)C(C)C)nc12		
280 nM	CC(C)[C@H](NC(=O)[C@@H]1CCCN1C(=O)[C@@H](NC(=O)N[C@H](C)C(=O)O)C(C)C)C(=O)c1nc2ccccc2o1	39%	
230 nM	CC(C)[C@H](NC(=O)[C@H]1CCCN1C(=O)COc1ccc(OCC(=O)O)cc1)C(=O)c1nc2c(OC(=O)C(C)(C)C)cccc2o1	66%	inhibition in vivo at 100 mg/kg [1]: 96%
> 10000 nM	COC(=O)COc1cccc2oc(C(=O)[C@@H](NC(=O)OCc3ccccc3)C(C)C)nc12		
> 10000 nM	CC(C)=CCOc1cccc2oc(C(=O)[C@@H](NC(=O)OCc3ccccc3)C(C)C)nc12		
450 nM	CC(C)[C@H](NC(=O)OCc1ccccc1)C(=O)c1nc2c(OC(=O)C(C)(C)C)cccc2o1		
> 10000 nM	CC(C)[C@H](NC(=O)OCc1ccccc1)C(=O)c1nc2c(OCC(=O)O)cccc2o1		
> 10000 nM	CCOc1cccc2oc(C(=O)[C@@H](NC(=O)OCc3ccccc3)C(C)C)nc12		
> 10000 nM	CC(C)[C@H](NC(=O)OCc1ccccc1)C(=O)c1nc2c(OCCN(C)C)cccc2o1		
